This test in a line: Antagonist activity against human CCR5 assessed as inhibition of HIV1 gp120-induced cell-cell fusion between human HeLa P4/R5 cells and CHO-tat10 cells expressing HIV-1JRFL viral envolop protein after 20 hrs by beta-galactosidase reporter gene assay. In general terms: In a reporter assay the amount or activity of a reporter protein is the signal.

As a reminder, the IC50 is the concentration that gives 50% inhibition.

With `Cc1ccncc1CN(c1ccc(N2CCOCC2)cc1)C1CCN([C@H](C)CCNC(=O)c2c(C)cc(Cl)nc2C)CC1`, the IC50 came out at 1590 nM.

With `COc1ccc(N(Cc2cccc(C#N)n2)C2CCN([C@H](C)CCNC(=O)c3c(C)cc(C#N)nc3C)CC2)cc1`, the IC50 was determined as 0.3 nM. With `Cc1ccncc1CN(c1ccccc1)C1CCN([C@H](C)CCNC(=O)c2c(C)cc(C#N)nc2C)CC1`, the IC50 stood at 7 nM. Under `Cc1ccncc1CN(c1ccc(OCC(N)=O)cc1)C1CCN([C@H](C)CCNC(=O)c2c(C)cc(C#N)nc2C)CC1` stands 0.98 nM; under `Cc1ccncc1CN(c1ccc([S+](C)[O-])cc1)C1CCN([C@H](C)CCNC(=O)c2c(C)ncnc2C)CC1` (stereo partly specified), 130 nM.

For `COCCOc1ccc(N(Cc2cnccc2C)C2CCN([C@H](C)CCNC(=O)c3c(C)cc(F)nc3C)CC2)cc1`, the IC50 came out at 1.3 nM. Consider `COCCOc1ccc(N(Cc2cnccc2C)C2CCN([C@H](C)CCNC(=O)c3c(C)cc(C#N)nc3C)CC2)cc1`, for which the IC50 was found to be 0.8 nM. Regarding `CC(CCNC(=O)c1c(Cl)cncc1Cl)N1CCC(N(Cc2cccc(C#N)c2)c2ccc(OC(F)(F)F)cc2)CC1` (stereo unspecified), the half-maximal inhibitory concentration (IC50) was determined as 3 nM. For `COc1ccc(N(Cc2cccc(C#N)c2)C2CCN(C(C)CCNC(=O)c3c(Cl)cncc3Cl)CC2)cc1` (stereo unspecified), the half-maximal inhibitory concentration (IC50) came out at 2 nM. Take `CC(CCNC(=O)c1c(Cl)cncc1Cl)N1CCC(N(Cc2cccc(C#N)c2)c2ccc(C(F)(F)F)cc2)CC1` (stereo unspecified): the IC50 was found to be 3 nM. Take `CC(CCNC(=O)c1c(Cl)cncc1Cl)N1CCC(N(Cc2cccc(C#N)c2)c2ccc(Br)cc2)CC1` (stereo unspecified): the IC50 is 8 nM. Then `COc1cccc(CN(c2ccc(Br)cc2)C2CCN(C(C)CCNC(=O)c3c(Cl)cncc3Cl)CC2)c1` (stereo unspecified), with 387 nM; and `CC(CCNC(=O)c1c(Cl)cncc1Cl)N1CCC(N(Cc2cccc(Cl)c2)c2ccc(Br)cc2)CC1` (stereo unspecified), with 30 nM. Then `CC(CCNC(=O)c1c(Cl)cncc1Cl)N1CCC(N(Cc2ccccc2)c2ccc(Oc3ccc(C(=O)O)cc3)cc2)CC1` (stereo unspecified), with 11 nM. `CC(CCNC(=O)c1c(Cl)cncc1Cl)N1CCC(N(Cc2ccccc2)c2ccc(C(=O)N(C)C)cc2)CC1` (stereo unspecified): the IC50 stood at 116 nM.

For `COC(=O)c1ccc(N(Cc2ccccc2)C2CCN(C(C)CCNC(=O)c3c(Cl)cncc3Cl)CC2)cc1` (stereo unspecified), the IC50 is 90 nM. Then `CC(CCNC(=O)c1c(Cl)cncc1Cl)N1CCC(N(Cc2ccccc2)c2ccc(C#N)cc2)CC1` (stereo unspecified), with 19 nM; and `CC(CCNC(=O)c1c(Cl)cncc1Cl)N1CCC(N(Cc2ccccc2)c2ccc(OC(F)(F)F)cc2)CC1` (stereo unspecified), with 26 nM. Under `COc1ccc(N(Cc2ccccc2)C2CCN(C(C)CCNC(=O)c3c(Cl)cncc3Cl)CC2)cc1` (stereo unspecified) stands 50 nM; under `CC(CCNC(=O)c1c(Cl)cncc1Cl)N1CCC(N(Cc2ccccc2)c2ccc(C(F)(F)F)cc2)CC1` (stereo unspecified), 34 nM; under `COc1ccc(N(Cc2cccc(C#N)n2)C2CCN([C@H](C)CCNC(=O)c3c(C)cc(Cl)nc3C)CC2)cc1`, 0.3 nM. For `COc1ccc(N(Cc2cccc(C#N)n2)C2CCN([C@H](C)CCNC(=O)c3c(C)cc(F)nc3C)CC2)cc1`, the IC50 came to 0.7 nM. Take `COCCOc1ccc(N(Cc2cnccc2C)C2CCN([C@H](C)CCNC(=O)c3c(C)cc(Cl)nc3C)CC2)cc1`: the IC50 was 0.6 nM.

As to `COc1ccc(N(Cc2cnccc2C)C2CCN([C@H](C)CCNC(=O)c3c(C)cc(C(=O)NC(C)C)nc3C)CC2)cc1`, the IC50 stood at 0.09 nM.

For the compound `COc1ccc(N(Cc2cnccc2C)C2CCN([C@H](C)CCNC(=O)c3c(C)cc(C#N)nc3C)CC2)cc1`, the IC50 is 0.3 nM. Under `COc1ccc(N(Cc2cccnc2)C2CCN([C@H](C)CCNC(=O)c3c(C)cc(F)nc3C)CC2)cc1` stands 1.6 nM; under `COc1ccc(N(Cc2cnccc2C)C2CCN([C@@H](C)CCNC(=O)c3c(C)cc(Cl)nc3C)CC2)cc1`, 40 nM. Then `COc1ccc(N(Cc2cnccc2C)C2CCN([C@H](C)CCNC(=O)c3c(C)cc(F)nc3C)CC2)cc1`, with 0.3 nM; and `COc1ccc(N(Cc2cccnc2)C2CCN([C@H](C)CCNC(=O)c3c(C)cc(Cl)nc3C)CC2)cc1`, with 1.5 nM; and `COc1ccc(N(Cc2cnccc2C)C2CCN([C@H](C)CCNC(=O)c3c(C)cc(Cl)nc3C)CC2)cc1`, with 0.2 nM. `COc1ccc(N(Cc2cnccc2C)C2CCN([C@H](C)CCNC(=O)c3cnc(Cl)cc3C)CC2)cc1`: the IC50 was 12.3 nM. For the compound `COc1ccc(N(Cc2cnccc2C)C2CCN([C@H](C)CCNC(=O)c3c(C)ccnc3Cl)CC2)cc1`, the IC50 amounted to 0.7 nM. In the case of `COc1ccc(N(Cc2cnccc2C)C2CCN([C@H](C)CCNC(=O)c3c(C)ccnc3C)CC2)cc1`, the IC50 is 2.4 nM.

As for `COc1ccc(N(Cc2cnccc2C)C2CCN([C@H](C)CCNC(=O)c3c(C)cncc3C)CC2)cc1`, the IC50 stood at 7 nM.

With `CC(CCNC(=O)c1c(Cl)cncc1Cl)N1CCC(N(Cc2cccc(C#N)c2)c2ccc(C#N)cc2)CC1` (stereo unspecified), the IC50 turned out to be 12 nM.

Turning to `CC(CCNC(=O)c1c(Cl)cncc1Cl)N1CCC(N(Cc2ccccc2)c2ccc(Br)cc2)CC1` (stereo unspecified) [N-(3-(4-(benzyl(4-bromophenyl)amino)piperidin-1-yl)butyl)-3,5-dichloroisonicotinamide], the IC50 stood at 49 nM.

(Values after BindingDB's records for doi:10.1016/j.bmcl.2011.09.133 (Genzyme, 2011).)
